Assays:
[1] = biological target: T1, human erythrocyte-derived 20S proteasome (Homo sapiens, UniProt P28072+P28074+Q99436); assay: In vitro 20S proteasome activity assay; type: biochemical; conditions: Suc-LLVY-AMC, Z-LLE-AMC, Boc-LRR-AMC substrates; FIG. 1
T1 construct: Purified human erythrocyte-derived 20S proteasome were obtained from Biomol; purchased Biomol, Plymouth Meeting, Pa; host or cells: purified from human erythrocytes
Description: The chymotrypsin-like activity of the 20S proteasome was measured as described in Stein, R. L., Melandri, F. & Dick, L. (1996) Biochemistry 35, 3899-908 and Lightcap, E. S., McCormack, T. A., Pien, C. […] Purified human erythrocyte-derived 20S proteasome were obtained from Biomol, Plymouth Meeting, Pa. The chymotrypsin-like, caspase-like and trypsin-like activity activities of the 20S proteasome were determined using Suc-LLVY-AMC, Z-LLE-AMC (Boston Biochem, Cambridge, Mass.) and Boc-LRR-AMC (Bachem Bioscience, King of Prussia, Pa.) as peptide substrates, respectively. Fluorescence of the cleaved peptide substrate was measured using a Fluoroskan Ascent 96-well microplate reader (Thermo Electron, Waltham, Mass.). The EC50 values were calculated by Prism (GraphPad Software) using a sigmoidal dose-response, variable slope model. The EC50 values were defined as the drug concentration at which 50% of the maximal relative fluorescence is inhibited.

[2] = tested on: patient MM-derived BMSCs; assay: DNA fragmentation apoptosis assay on bone marrow stromal cells; type: cell-based, human; conditions: 20 nM, 24 h, BMSCs Patient #1-5; FIG. 6
[3] = tested on: MM.1S cells; assay: cells; conditions: for viable cells: FIG. 12D
Excerpt: MM.1S cells were also transiently transfected using Cell line Nucleofecto kit V, according to the manufacturer's instructions (Amaxa Biosystems, Germany), with vector alone, DN-caspase-8, DN-caspase-9, or DN-FADD and cotransfected with vector containing green fluorescence protein (GFP) alone.
It was next determined whether inhibition of an upstream signaling pathway that leads to caspase-8 activation affects the response to the compound of formula (II) (X=Cl) or Bortezomib. The Fas-associated death domain (FADD) protein is an important part of the deathinducing signaling complexes (DISCs) that assemble upon engagement of TNF receptor family members, such as Fas, resulting in proteolytic processing and autoactivation of pro-caspase-8. Since both the compound of formula (II) (X=Cl) and Bortezomib trigger caspase-8 activation, the role of FADD during this event in MM cells was evaluated using DN-FADD.

In the case of `CC12OC(=O)C1(C(O)C1C=CCCC1)NC(=O)C2CCCl` (stereo not drawn) [compound of formula (II) (X=Cl)], the “inhibition of chymotrypsin-like, caspase-like and trypsin-like activities of the 20S proteasome” value [1] is reported as “inhibits all three proteasome activities”, the “apoptosis by DNA fragmentation assay” value [2] is reported as “does not induce apoptosis” and the viable cells ([3]; DN-FADD-transfected MM.1S cells) is reported as 76%±5.1. The “effect of caspase-8 blockade on triggered cell death” value ([3]; IETD-fmk, FIG. 12A) was “significant decrease in cell death”, the “effect of caspase-9 inhibition on decreased viability” value ([3]; LEHD-FMK, FIG. 12A) was “only moderately blocked” and the IC50 ([3]; MM.1S cells, concentration used for treatment) was 7 nM. The “survival of DN-caspase-8-transfected compared to DN-caspase-9-transfected cells” value ([3]; treated at IC50, FIG. 12B) was “markedly increased survival”, the viable cells ([3]; vector-transfected MM.1S cells) was 42%±2.0 and the “effect of caspase-3 inhibition on induced apoptosis” value ([3]; z-VAD-fmk, FIG. 12A) was “markedly abrogates”.

From patent US10610517B2, “Compositions and methods for treating neoplastic diseases” (Celgene International II Sàrl, priority 2004, dated 2020)
